Test results as given in patent US8802597B2, “Herbicidal pyrimidines” (E I du Pont de Nemours and Company, priority 2003, dated 2014).
Where two headings read alike, the source gives them in different places.

How the values were obtained:
Experiment in all cases: Test A pre/postemergence
Type in all cases: in vivo
[1] = tested on: morningglory (Ipomoea spp.); conditions: for pest or weed control at 125 g/ha / pest or weed control at 500 g/ha: Ipomoea, 240 h, read-out: Plant response rating, Morningglory
In short: (§1)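 Compared with untreated controls, treated plants were visually rated for injury on a 0 (none) to 100 (complete control) scale about ten days after spraying. Pre- and postemergence applications used one solvent/surfactant formulation; postemergence plants measured 2–10 cm.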

[2] = tested on: redroot pigweed (Amaranthus retroflexus); conditions: for pest or weed control at 125 g/ha / pest or weed control at 500 g/ha: Amaranthus retroflexus, 240 h, read-out: Plant response rating, Pigweed
In short: as §1

[3] = tested on: velvetleaf (Abutilon theophrasti); conditions: for pest or weed control at 125 g/ha / pest or weed control at 500 g/ha: Abutilon theophrasti, 240 h, read-out: Plant response rating, Velvetleaf
In short: as §1

[4] = tested on: crabgrass (Digitaria sanguinalis); conditions: for pest or weed control at 125 g/ha / pest or weed control at 500 g/ha: Digitaria sanguinalis, 240 h, read-out: Plant response rating, Crabgrass
In short: as §1

[5] = tested on: barnyardgrass (Echinochloa crus-galli); conditions: for pest or weed control at 125 g/ha / pest or weed control at 500 g/ha: Echinochloa crus-galli, 240 h, read-out: Plant response rating, Barnyardgrass
In short: as §1

[6] = tested on: giant foxtail (Setaria faberi); conditions: for pest or weed control at 125 g/ha / pest or weed control at 500 g/ha: Setaria faberi, 240 h, read-out: Plant response rating, Foxtail, Giant
In short: as §1

[7] = post-emergence, Postemergence, 125 g ai/ha, 0 to 100 scale (0 no effect, 100 complete control)
[8] = post-emergence, Postemergence, 500 g ai/ha, 0 to 100 scale (0 no effect, 100 complete control)
[9] = pre-emergence, Preemergence, 125 g ai/ha, 0 to 100 scale where 0 is no effect and 100 is complete control, approximately ten days
[10] = pre-emergence, Preemergence, 500 g ai/ha, 0 to 100 scale where 0 is no effect and 100 is complete control, approximately ten days
[11] = Postemergence, 125 g ai/ha, 0 to 100 scale (0 no effect, 100 complete control)
[12] = Postemergence, 500 g ai/ha, 0 to 100 scale (0 no effect, 100 complete control)
[13] = Preemergence, 125 g ai/ha, 0 to 100 scale where 0 is no effect and 100 is complete control, approximately ten days
[14] = Preemergence, 500 g ai/ha, 0 to 100 scale where 0 is no effect and 100 is complete control, approximately ten days

## CNc1nc(C2CC2)nc(C(=O)OC)c1Cl [Compound 79]
[1]; [7]
  pest or weed control at 125 g/ha: 90%
[1]; [8]
  pest or weed control at 500 g/ha: 95%
[1]; [9]
  pest or weed control at 125 g/ha: 55%
[1]; [10]
  pest or weed control at 500 g/ha: 100%
[2]; [7]
  pest or weed control at 125 g/ha: 90%
[2]; [8]
  pest or weed control at 500 g/ha: 100%
[2]; [9]
  pest or weed control at 125 g/ha: 90%
[2]; [10]
  pest or weed control at 500 g/ha: 100%
[3]; [7]
  pest or weed control at 125 g/ha: 90%
[3]; [8]
  pest or weed control at 500 g/ha: 95%
[3]; [9]
  pest or weed control at 125 g/ha: 60%
[3]; [10]
  pest or weed control at 500 g/ha: 90%
[4]; [7]
  pest or weed control at 125 g/ha: 40%
[4]; [8]
  pest or weed control at 500 g/ha: 75%
[4]; [9]
  pest or weed control at 125 g/ha: 30%
[4]; [10]
  pest or weed control at 500 g/ha: 80%
[5]; [7]
  pest or weed control at 125 g/ha: 85%
[5]; [8]
  pest or weed control at 500 g/ha: 90%
[5]; [9]
  pest or weed control at 125 g/ha: 30%
[5]; [10]
  pest or weed control at 500 g/ha: 80%
[6]; [7]
  pest or weed control at 125 g/ha: 80%
[6]; [8]
  pest or weed control at 500 g/ha: 90%
[6]; [9]
  pest or weed control at 125 g/ha: 40%
[6]; [10]
  pest or weed control at 500 g/ha: 95%

## COC(=O)c1nc(-c2ccc(Br)cc2)nc(N)c1Br [Compound 129]
[1]; [11]
  Plant response rating, Morningglory: 60
[1]; [12]
  Plant response rating, Morningglory: 70
[1]; [13]
  Plant response rating, Morningglory: 0
[1]; [14]
  Plant response rating, Morningglory: 0
[2]; [11]
  Plant response rating, Pigweed: 80
[2]; [12]
  Plant response rating, Pigweed: 85
[2]; [13]
  Plant response rating, Pigweed: 0
[2]; [14]
  Plant response rating, Pigweed: 15
[3]; [11]
  Plant response rating, Velvetleaf: 80
[3]; [12]
  Plant response rating, Velvetleaf: 90
[3]; [13]
  Plant response rating, Velvetleaf: 0
[3]; [14]
  Plant response rating, Velvetleaf: 5
[4]; [11]
  Plant response rating, Crabgrass: 0
[4]; [12]
  Plant response rating, Crabgrass: 0
[4]; [13]
  Plant response rating, Crabgrass: 0
[4]; [14]
  Plant response rating, Crabgrass: 0
[5]; [11]
  Plant response rating, Barnyardgrass: 0
[5]; [12]
  Plant response rating, Barnyardgrass: 0
[5]; [13]
  Plant response rating, Barnyardgrass: 0
[5]; [14]
  Plant response rating, Barnyardgrass: 0
[6]; [11]
  Plant response rating, Foxtail, Giant: 0
[6]; [12]
  Plant response rating, Foxtail, Giant: 0
[6]; [13]
  Plant response rating, Foxtail, Giant: 0
[6]; [14]
  Plant response rating, Foxtail, Giant: 0

## COC(=O)c1nc(-c2ccc(Cl)cc2)nc(N)c1Cl [Compound 58, methyl 6-amino-5-chloro-2-(4-chlorophenyl)-4-pyrimidinecarboxylate]
[1]; [7]
  pest or weed control at 125 g/ha: 55%
[1]; [8]
  pest or weed control at 500 g/ha: 80%
[1]; [9]
  pest or weed control at 125 g/ha: 10%
[1]; [10]
  pest or weed control at 500 g/ha: 25%
[2]; [7]
  pest or weed control at 125 g/ha: 70%
[2]; [8]
  pest or weed control at 500 g/ha: 80%
[2]; [9]
  pest or weed control at 125 g/ha: 0%
[2]; [10]
  pest or weed control at 500 g/ha: 60%
[3]; [7]
  pest or weed control at 125 g/ha: 70%
[3]; [8]
  pest or weed control at 500 g/ha: 85%
[3]; [9]
  pest or weed control at 125 g/ha: 0%
[3]; [10]
  pest or weed control at 500 g/ha: 40%
[4]; [7]
  pest or weed control at 125 g/ha: 5%
[4]; [8]
  pest or weed control at 500 g/ha: 10%
[4]; [9]
  pest or weed control at 125 g/ha: 0%
[4]; [10]
  pest or weed control at 500 g/ha: 0%
[5]; [7]
  pest or weed control at 125 g/ha: 5%
[5]; [8]
  pest or weed control at 500 g/ha: 10%
[5]; [9]
  pest or weed control at 125 g/ha: 0%
[5]; [10]
  pest or weed control at 500 g/ha: 0%
[6]; [7]
  pest or weed control at 125 g/ha: 0%
[6]; [8]
  pest or weed control at 500 g/ha: 50%
[6]; [9]
  pest or weed control at 125 g/ha: 0%
[6]; [10]
  pest or weed control at 500 g/ha: 10%

## Nc1nc(C2CC2)nc(C(=O)[O-])c1Br.[Na+] [Compound 113, 6-amino-5-bromo-2-cyclopropyl-4-pyrimidinecarboxylic acid monosodium salt]
[1]; [7]
  pest or weed control at 125 g/ha: 90%
[1]; [8]
  pest or weed control at 500 g/ha: 90%
[1]; [9]
  pest or weed control at 125 g/ha: 90%
[1]; [10]
  pest or weed control at 500 g/ha: 100%
[2]; [7]
  pest or weed control at 125 g/ha: 80%
[2]; [8]
  pest or weed control at 500 g/ha: 90%
[2]; [9]
  pest or weed control at 125 g/ha: 80%
[2]; [10]
  pest or weed control at 500 g/ha: 90%
[3]; [7]
  pest or weed control at 125 g/ha: 80%
[3]; [8]
  pest or weed control at 500 g/ha: 95%
[3]; [9]
  pest or weed control at 125 g/ha: 65%
[3]; [10]
  pest or weed control at 500 g/ha: 95%
[4]; [7]
  pest or weed control at 125 g/ha: 25%
[4]; [8]
  pest or weed control at 500 g/ha: 55%
[4]; [9]
  pest or weed control at 125 g/ha: 15%
[4]; [10]
  pest or weed control at 500 g/ha: 70%
[5]; [7]
  pest or weed control at 125 g/ha: 55%
[5]; [8]
  pest or weed control at 500 g/ha: 90%
[5]; [9]
  pest or weed control at 125 g/ha: 25%
[5]; [10]
  pest or weed control at 500 g/ha: 80%
[6]; [7]
  pest or weed control at 125 g/ha: 65%
[6]; [8]
  pest or weed control at 500 g/ha: 85%
[6]; [9]
  pest or weed control at 125 g/ha: 15%
[6]; [10]
  pest or weed control at 500 g/ha: 80%

## Cc1ccc(-c2nc(N)c(Cl)c(C(=O)O)n2)cc1 [Compound 91]
[1]; [11]
  Plant response rating, Morningglory: 5
[1]; [12]
  Plant response rating, Morningglory: 30
[1]; [13]
  Plant response rating, Morningglory: 5
[1]; [14]
  Plant response rating, Morningglory: 50
[2]; [11]
  Plant response rating, Pigweed: 55
[2]; [12]
  Plant response rating, Pigweed: 100
[2]; [13]
  Plant response rating, Pigweed: 100
[2]; [14]
  Plant response rating, Pigweed: 100
[3]; [11]
  Plant response rating, Velvetleaf: 75
[3]; [12]
  Plant response rating, Velvetleaf: 95
[3]; [13]
  Plant response rating, Velvetleaf: 80
[3]; [14]
  Plant response rating, Velvetleaf: 100
[4]; [11]
  Plant response rating, Crabgrass: 5
[4]; [12]
  Plant response rating, Crabgrass: 15
[4]; [13]
  Plant response rating, Crabgrass: 25
[4]; [14]
  Plant response rating, Crabgrass: 75
[5]; [11]
  Plant response rating, Barnyardgrass: 75
[5]; [12]
  Plant response rating, Barnyardgrass: 90
[5]; [13]
  Plant response rating, Barnyardgrass: 5
[5]; [14]
  Plant response rating, Barnyardgrass: 80
[6]; [11]
  Plant response rating, Foxtail, Giant: 5
[6]; [12]
  Plant response rating, Foxtail, Giant: 75
[6]; [13]
  Plant response rating, Foxtail, Giant: 0
[6]; [14]
  Plant response rating, Foxtail, Giant: 25

## COC(=O)c1nc(C2CC2)nc(N)c1OC [Compound 59]
[1]; [7]
  pest or weed control at 125 g/ha: 90%
[1]; [8]
  pest or weed control at 500 g/ha: 100%
[1]; [9]
  pest or weed control at 125 g/ha: 80%
[1]; [10]
  pest or weed control at 500 g/ha: 100%
[2]; [7]
  pest or weed control at 125 g/ha: 60%
[2]; [8]
  pest or weed control at 500 g/ha: 80%
[2]; [9]
  pest or weed control at 125 g/ha: 20%
[2]; [10]
  pest or weed control at 500 g/ha: 70%
[3]; [7]
  pest or weed control at 125 g/ha: 60%
[3]; [8]
  pest or weed control at 500 g/ha: 85%
[3]; [9]
  pest or weed control at 125 g/ha: 10%
[3]; [10]
  pest or weed control at 500 g/ha: 45%
[4]; [7]
  pest or weed control at 125 g/ha: 0%
[4]; [8]
  pest or weed control at 500 g/ha: 10%
[4]; [9]
  pest or weed control at 125 g/ha: 0%
[4]; [10]
  pest or weed control at 500 g/ha: 0%
[5]; [7]
  pest or weed control at 125 g/ha: 0%
[5]; [8]
  pest or weed control at 500 g/ha: 30%
[5]; [9]
  pest or weed control at 125 g/ha: 0%
[5]; [10]
  pest or weed control at 500 g/ha: 15%
[6]; [7]
  pest or weed control at 125 g/ha: 0%
[6]; [8]
  pest or weed control at 500 g/ha: 35%
[6]; [9]
  pest or weed control at 125 g/ha: 0%
[6]; [10]
  pest or weed control at 500 g/ha: 0%
